The numbers were not newly measured in US20220288056A1, “PHARMACEUTICAL COMPOSITION CONTAINING NITROXOLINE, NITROXOLINE ORAL SOLID TABLET, PREPARATION METHOD THEREFOR AND USE THEREOF” (Jiangsu Yahong Meditech Co., Ltd., priority 2019, published 2022), which cites them from elsewhere.

Molecules are shown by their SMILES.

The target in data set [1] is T1, methionine aminopeptidase MetAP2 (Homo sapiens, UniProt P50579).
T1 construct: host or cells: vascular endothelial cells
The settings on record: vascular endothelial cells.

Data set [2] has as its target T2, silence information regulator 2-related enzyme SIRT1 (Homo sapiens, UniProt Q96EB6).
T2 construct: host or cells: vascular endothelial cells
T2 sequence (Q96EB6 1-747): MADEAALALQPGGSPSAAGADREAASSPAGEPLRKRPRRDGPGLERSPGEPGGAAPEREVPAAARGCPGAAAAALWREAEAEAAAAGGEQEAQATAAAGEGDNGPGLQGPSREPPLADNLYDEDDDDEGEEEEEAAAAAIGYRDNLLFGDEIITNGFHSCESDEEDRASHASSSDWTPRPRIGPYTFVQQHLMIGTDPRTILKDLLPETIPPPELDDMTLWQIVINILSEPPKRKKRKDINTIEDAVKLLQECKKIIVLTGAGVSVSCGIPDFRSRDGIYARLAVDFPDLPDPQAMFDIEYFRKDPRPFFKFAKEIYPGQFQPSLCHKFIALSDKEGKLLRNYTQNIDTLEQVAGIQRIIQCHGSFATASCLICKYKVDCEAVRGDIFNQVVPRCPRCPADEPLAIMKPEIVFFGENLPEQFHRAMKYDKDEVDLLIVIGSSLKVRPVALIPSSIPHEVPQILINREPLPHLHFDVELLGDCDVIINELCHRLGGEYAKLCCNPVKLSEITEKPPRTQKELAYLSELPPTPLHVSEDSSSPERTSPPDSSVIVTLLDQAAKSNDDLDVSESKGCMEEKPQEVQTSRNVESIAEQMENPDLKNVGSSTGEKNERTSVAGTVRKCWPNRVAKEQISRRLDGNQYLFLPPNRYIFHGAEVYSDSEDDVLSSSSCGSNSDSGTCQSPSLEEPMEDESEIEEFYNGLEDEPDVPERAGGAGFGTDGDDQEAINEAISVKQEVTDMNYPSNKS
The settings on record: vascular endothelial cells.

T1 sequence (P50579 whole entry): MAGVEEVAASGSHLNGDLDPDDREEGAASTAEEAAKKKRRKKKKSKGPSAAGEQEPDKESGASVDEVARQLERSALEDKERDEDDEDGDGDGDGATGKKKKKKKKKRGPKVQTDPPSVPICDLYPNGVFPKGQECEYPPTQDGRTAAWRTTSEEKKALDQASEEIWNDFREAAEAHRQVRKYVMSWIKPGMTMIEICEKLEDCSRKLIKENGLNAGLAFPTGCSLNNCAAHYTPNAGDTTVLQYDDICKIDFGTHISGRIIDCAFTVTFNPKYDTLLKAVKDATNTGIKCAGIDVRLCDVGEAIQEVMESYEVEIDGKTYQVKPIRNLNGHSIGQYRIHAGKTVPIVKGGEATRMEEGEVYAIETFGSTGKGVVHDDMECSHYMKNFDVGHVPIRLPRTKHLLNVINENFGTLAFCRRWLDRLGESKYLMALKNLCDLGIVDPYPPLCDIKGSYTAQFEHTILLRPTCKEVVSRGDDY

Take `O=[N+]([O-])c1ccc(O)c2ncccc12` [Nitroxoline, 5-nitro-8-hydroxyquinoline]: the “inhibition of MetAP2” value in data set [1] is reported as “inhibit”. Besides, in data set [2], the “inhibition of SIRT1” value is given as “inhibit”.
